Experimental data: patent US7947284B2, “Purified component of blue-green algae and method of use” (Desert Lake Technologies, priority 2005, dated 2011)

Tested on: CXCR4 expression on the human CD34+ cell line KG-1a
Experiment: Fucoidan-induced CXCR4 expression on KG-1a cells (flow cytometry)
Type: cell-based
Settings: KG-1a incubated with the agonist alone
From the text: Immunostaining for CXCR4 expression induced by L-selectin ligands: The binding of Fucoidan to L-selectin results in externalization of pre-made CXCR4 onto the cell surface, followed by internalization, creating a window in time for responsiveness to chemotactic factors. This system was used to examine whether AFA-W would compete with Fucoidan for binding to L-selectin on the leukocyte cell surface, and to assess whether it would block this functional effect from another L-selectin ligand. To do so, freshly purified human PBMC were resuspended in RPMI, and distributed in a series of round-bottom microwells. Fucoidan was added to one series of wells, AFA-W to another series, and a mixture of Fucoidan and AFA-W was added to the third series of wells. […] Cells were washed in phosphate-buffered saline containing azide, stained with CXCR4-PE using the staining protocol described above, fixed in formalin, and analyzed by flow cytometry.
The primitive cell line KG-1a is brightly positive for CD34 and for L-selectin, as evaluated by staining with the TQ1 monoclonal antibody. […]
The expression of CXCR4 receptors following exposure to fucoidan was evaluated on lymphocytes using flow cytometry.

Fucoidan
effect on expression of the chemokine receptor CXCR4: triggers the expression
